Results from the NIST ThermoML archive (doi:10.1021/je400790d).

Test: mn = molality of the nth substance listed, in mol/kg
Conditions: 100 kPa, Liquid, Vibrating tube method

CCCCCCCC[N+]1(C)CCOCC1.O=S(=O)([N-]S(=O)(=O)C(F)(F)F)C(F)(F)F + CC#N
mass density [kg/m3]
Conditions	m1 = 0.00838	m1 = 0.01564	m1 = 0.02472	m1 = 0.03714	m1 = 0.05106	m1 = 0.06653	m1 = 0.08502	m1 = 0.1052	m1 = 0.1294	m1 = 0.1609
298.15 K	777.974	779.195	780.71	782.766	785.044	787.549	790.507	793.696	797.448	802.25
303.15 K	772.547	773.77	775.289	777.348	779.63	782.14	785.101	788.29	792.039	796.85
308.15 K	767.094	768.318	769.839	771.899	774.185	776.698	779.664	782.856	786.61	791.423
313.15 K	761.606	762.833	764.357	766.421	768.71	771.222	774.189	777.385	781.149	785.97
318.15 K	756.08	757.311	758.838	760.906	763.198	765.716	768.695	771.901	775.667	780.493

CCCC[N+]1(C)CCOCC1.O=S(=O)([N-]S(=O)(=O)C(F)(F)F)C(F)(F)F + CC#N
mass density [kg/m3]
Conditions	m1 = 0.00879	m1 = 0.01653	m1 = 0.02761	m1 = 0.03802	m1 = 0.05226	m1 = 0.06737	m1 = 0.08642	m1 = 0.1101	m1 = 0.13	m1 = 0.1623
298.15 K	778.005	779.272	781.074	782.759	785.036	787.436	790.427	794.115	797.144	802.019
303.15 K	772.575	773.845	775.647	777.331	779.607	781.999	784.994	788.679	791.717	796.577
308.15 K	767.12	768.39	770.192	771.873	774.153	776.549	779.543	783.226	786.253	791.135
313.15 K	761.631	762.901	764.703	766.385	768.667	771.064	774.057	777.74	780.771	785.644
318.15 K	756.103	757.375	759.178	760.862	763.147	765.551	768.552	772.235	775.257	780.136

CC[N+]1(C)CCOCC1.O=S(=O)([N-]S(=O)(=O)C(F)(F)F)C(F)(F)F + CC#N
mass density [kg/m3]
Conditions	m1 = 0.009434	m1 = 0.01654	m1 = 0.02652	m1 = 0.03788	m1 = 0.05256	m1 = 0.06858	m1 = 0.08695	m1 = 0.1078	m1 = 0.1316	m1 = 0.1634
298.15 K	778.145	779.333	780.985	782.85	785.24	787.81	790.74	794.037	797.714	802.54
303.15 K	772.716	773.905	775.56	777.429	779.815	782.385	785.318	788.611	792.286	797.108
308.15 K	767.263	768.452	770.11	771.974	774.365	776.944	779.877	783.146	786.836	791.661
313.15 K	761.774	762.964	764.619	766.483	768.876	771.442	774.373	777.657	781.334	786.155
318.15 K	756.247	757.44	759.113	760.976	763.372	765.945	768.855	772.158	775.832	780.648
